What was measured:
cells = assay: Oxygen consumption rate (OCR) after 3HP-dependent GSH loss (FIG. 6); assay type: cell-based
[1] = Menadione toxicity to hepatocytes from young and old rats (percent viability, LC50); assay type: cell-based, rat; details: rat
Excerpt: (§1) Hepatocytes isolated from an old rat have 60% less mitochondrial GSH than that seen in young adult animals. In this example, menadione was used as a redox cycler, to stress mitochondria in hepatocytes, as GSH-dependent mechanisms can be involved its detoxification. […] The increased vulnerability to menadione has been linked to the loss of GSH resulting from the decline in GSH synthesis capacity.
(§2) Menadione treatment alone served as the positive control.

hepatocytes = assay: as above; assay type: cell-based, rat
Excerpt: as §1, §2

[2] = test system: hepatocytes from aged rats; details: triphenylphosphonium alone
Procedure: Menadione treatment alone served as the positive control. Viability in untreated hepatocytes also was measured over two hours.

mice = assay: Effect of mitoGSH in animals: i.p. injection of TPP-GSSG, 48 hour observation, liver chemistry profile; assay type: in vivo; details: 3.8 mg/kg i.p.
Procedure: Three seven-month-old female non-transgenic mice (approximately 30 g each) were injected i.p. with 3.8 mg/kg TPP-GSSG in 100 μL/mouse. TPP-GSSG was initially solubilized in DMF and later diluted in millipure water to 5.3% (v/v) dimethylformamide for injection. […] All mice gained weight (0.1 g-2.3 g) over the 48 hour period. Blood was collected via brachial cut, spun down to collect plasma and then delivered to OSU Veterinary Diagnostic Laboratory for a small animal liver chemistry profile.

## C=CC(O)CC(=O)O (stereo not drawn) [3HP, 3-hydroxy-4-pentenoate]
cells; 3HP-dependent GSH loss
  basal respiration, ATP turnover, proton leak, non-mitochondrial respiration (OCR): does not alter
cells; higher levels of 3HP treatment
  respiratory capacity (OCR): increasingly lost

## CC1=CC(=O)c2ccccc2C1=O [menadione]
[1]; isolated hepatocytes from old rats, hepatocytes from old rats
  CC50: 300 µM
[1]; isolated hepatocytes from young rats, hepatocytes from young rats
  CC50: ~500 µM
hepatocytes; hepatocytes from old rats
  CC50: 232 µM
hepatocytes; hepatocytes from young rats
  CC50: 401 µM

## Triphenylphosphonium
[2]
  effect on hepatocyte viability: did not affect viability

## Triphenylphosphonium glutathione disulfide tetraethyl ester [TPP-GSSG]
mice; 48 hours, female non-transgenic mice
  health and activity of mice: no detrimental effects observed
mice; after 48 hours
  small animal liver chemistry profile (plasma): No liver damage or abnormalities were detected
